Reference: the supplement of paper PMC11061612

Assays:
Assay in all cases: combination Emax (second highest fraction inhibited in the dose matrix, 72 h); higher = more inhibition; extreme values may be limits of the assay
[1] = test system: RKO (Colorectal Carcinoma)
How it was run: (§1)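 Cell lines grown in DMEM/F12 or RPMI with 10% FBS were plated in 1536-well plates and held 24 hours at 37°C, 5% CO2 before 72 hours of exposure to two-drug dose matrices, with DMSO typically at 0.2%. CellTiter-Glo 2.0 luminescence gave viability, which was converted to inhibition. Vehicle wells were set to 0 and blank wells to 1. Combination Emax is the second-highest inhibition in the matrix, and Bliss excess is the observed combination effect minus the expected EA + EB − EA·EB, where EA and EB are the single-agent effects.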

HMV-II (Melanoma) = test system: HMV-II (Melanoma)
How it was run: as §1

[2] = test system: CAL-51 (Breast Carcinoma)
How it was run: as §1

[3] = test system: SW626 (Colorectal Carcinoma)
How it was run: as §1

NCI-H28 (Mesothelioma) = test system: NCI-H28 (Mesothelioma)
How it was run: as §1

[4] = test system: CAL-54 (Kidney Carcinoma)
How it was run: as §1

[5] = test system: OC-314 (Ovarian Carcinoma)
How it was run: as §1

[6] = test system: MDA-MB-468 (Breast Carcinoma)
How it was run: as §1

SMILES | combination Emax [1] | combination Emax (HMV-II (Melanoma)) | combination Emax [2] | combination Emax [3] | combination Emax (NCI-H28 (Mesothelioma)) | combination Emax [4] | combination Emax [5] | combination Emax [6]
CN(CCO)CC[C@H](CSc1ccccc1)Nc1ccc(S(=O)(=O)NC(=O)c2ccc(N3CCC([C@@H](O)c4ccccc4-c4ccc(Cl)cc4)CC3)cc2)cc1S(=O)(=O)C(F)(F)F [AZD4320] + Cn1cnc2c(F)c(Nc3ccc(Br)cc3Cl)c(C(=O)NOCCO)cc21 [Selumetinib] (first compound max 1 µM, 7x7, partner max 3 µM) | 0.754 | 0.826 | 0.487 | 0.837 | 0.313 | 0.311 | 0.351 | 0.789
NC1(C(=O)N[C@@H](CCO)c2ccc(Cl)cc2)CCN(c2ncnc3[nH]ccc23)CC1 [Capivasertib] + CC(=O)c1c(C)c2cnc(Nc3ccc(N4CCNCC4)cn3)nc2n(C2CCCC2)c1=O [Palbociclib] (first compound max 10 µM, 7x7, partner max 10 µM) | 0.601 | 0.524 | 0.55 | 0.348 | 0.425 | 0.658 | 0.515 | 0.508
NC1(C(=O)N[C@@H](CCO)c2ccc(Cl)cc2)CCN(c2ncnc3[nH]ccc23)CC1 [Capivasertib] + CC(C)n1c(=O)n(C)c2cnc3cc(F)c(-c4ccc(OCCCN5CCCCC5)nc4)cc3c21 [AZD1390] (first compound max 10 µM, 7x7, partner max 0.3 µM) | 0.524 | 0.358 | 0.488 | 0.273 | 0.281 | 0.466 | 0.421 | 0.518
COc1cc2ncnc(Nc3ccc(F)c(Cl)c3)c2cc1OCCCN1CCOCC1 [Gefitinib] + CC(C)n1c(=O)n(C)c2cnc3cc(F)c(-c4ccc(OCCCN5CCCCC5)nc4)cc3c21 [AZD1390] (first compound max 10 µM, 7x7, partner max 0.3 µM) | 0.0688 | 0.411 | 0.068 | 0.0985 | 0.346 | 0.486 | 0.255 | 
C[C@@H](c1ccc2nccn2c1)n1nnc2ncc(-c3cnn(C)c3)nc21 [Savolitinib] + CC1(C)CCC(CN2CCN(c3ccc(C(=O)NS(=O)(=O)c4ccc(NCC5CCOCC5)c([N+](=O)[O-])c4)c(Oc4cnc5[nH]ccc5c4)c3)CC2)=C(c2ccc(Cl)cc2)C1 [Venetoclax] (first compound max 1 µM, 7x7, partner max 1 µM) | 0.166 | 0.12 | 0.113 | 0.129 | 0.181 | 0.143 | 0.254 | 
C[C@@H](c1ccc2nccn2c1)n1nnc2ncc(-c3cnn(C)c3)nc21 [Savolitinib] + Cc1c2c(nn1C)CSCc1cc(n(C)n1)CSc1cc(c3ccccc3c1)OCCCc1c(C(=O)O)n(C)c3c-2c(Cl)ccc13 [AZD5991] (first compound max 1 µM, 7x7, partner max 1 µM) | 0.211 | 0.128 | 0.152 | 0.221 | 0.155 | 0.188 | 0.163 | 
Cn1cnc2c(F)c(Nc3ccc(Br)cc3Cl)c(C(=O)NOCCO)cc21 [Selumetinib] + C=CCn1c(=O)c2cnc(Nc3ccc(N4CCN(C)CC4)cc3)nc2n1-c1cccc(C(C)(C)O)n1 [AZD1775] (first compound max 10 µM, partner max 1 µM) | 0.904 | 0.812 | 0.893 | 0.724 | 0.433 | 0.643 | 0.452 | 
Cn1cnc2c(F)c(Nc3ccc(Br)cc3Cl)c(C(=O)NOCCO)cc21 [Selumetinib] + CC(C)n1c(=O)n(C)c2cnc3cc(F)c(-c4ccc(OCCCN5CCCCC5)nc4)cc3c21 [AZD1390] (first compound max 10 µM, 7x7, partner max 0.3 µM) | 0.606 | 0.719 | 0.157 | 0.562 | 0.262 | 0.346 | 0.211 | 
Cn1cnc2c(F)c(Nc3ccc(Br)cc3Cl)c(C(=O)NOCCO)cc21 [Selumetinib] + CCN(CCO)CCCOc1ccc2c(Nc3cc(CC(=O)Nc4cccc(F)c4)[nH]n3)ncnc2c1 [AZD2811] (first compound max 10 µM, 7x7, partner max 1 µM) | 0.838 | 0.717 | 0.479 | 0.624 | 0.352 | 0.382 | 0.425 | 
Cn1cnc2c(F)c(Nc3ccc(Br)cc3Cl)c(C(=O)NOCCO)cc21 [Selumetinib] + C[C@@H]1COCCN1C2=NC(=NC(=C2)C3(CC3)[S@](=N)(=O)C)C4=C5C=CNC5=NC=C4 [AZD6738] (first compound max 10 µM, 7x7, partner max 10 µM) | 0.945 | 0.735 | 0.964 | 0.681 | 0.471 | 0.616 | 0.753 | 
